# Patent publication US11708391B2, “Rapaglutins, novel inhibitors of GLUT and use thereof” (The Johns Hopkins University, priority 2016, dated 2023)
# “Also recorded” adds a separate entry of the source. Read-outs that look alike come from different tables or passages of the source.
# Assays:
# [1] = biological target: T1, GLUT1 (Homo sapiens, UniProt P11166); test: 3-O-methyl-D-[3H] glucose uptake in RBC-derived ghosts; format: cell-based
# T1 construct: endogenous in cells; host or cells: erythrocyte (RBC-derived) ghosts
# T1 sequence (P11166 1-492): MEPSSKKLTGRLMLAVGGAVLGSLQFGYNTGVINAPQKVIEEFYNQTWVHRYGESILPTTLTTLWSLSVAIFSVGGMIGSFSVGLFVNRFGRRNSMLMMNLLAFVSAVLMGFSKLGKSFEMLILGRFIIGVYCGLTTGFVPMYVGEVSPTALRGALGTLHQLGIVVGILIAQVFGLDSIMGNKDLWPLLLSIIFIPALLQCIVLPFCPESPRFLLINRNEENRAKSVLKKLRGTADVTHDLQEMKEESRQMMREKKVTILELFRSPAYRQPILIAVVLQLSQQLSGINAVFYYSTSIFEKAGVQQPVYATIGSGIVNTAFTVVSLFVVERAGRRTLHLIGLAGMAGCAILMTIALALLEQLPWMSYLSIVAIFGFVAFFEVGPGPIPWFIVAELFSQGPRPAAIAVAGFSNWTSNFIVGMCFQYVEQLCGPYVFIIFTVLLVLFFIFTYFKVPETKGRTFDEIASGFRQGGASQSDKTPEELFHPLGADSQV
# From the text: (§1) FIGS. 3A-3D. Inhibition of Glucose Transport by A18 and E11. (a) Inhibition of 3-O-methyl-D-[3H] glucose uptake in human red blood cells by A18. (b) Inhibition of 3-O-methyl-D-[3H] glucose uptake in human red blood cells by E11. (c) Inhibition of 3-O-methyl-D-[3H] glucose uptake in erythrocyte ghosts by A18. (d) Inhibition of 3-O-methyl-D-[3H] glucose uptake in erythrocyte ghosts by E11.
# (§2) A18 and E11 were previously shown to have a broad spectrum of anticancer activity. […] To test this hypothesis, red blood cells (RBCs) were applied as a cell model because RBCs express Glut1 as their sole glucose transporter and have been frequently used in studying glucose transport. […] To eliminate other possibilities, the glucose uptake assays were repeated in RBC-derived ghosts, in which all the intracellular proteins and enzymes were removed and only membrane-bound and membrane-associated proteins remained. […] (see FIGS. 2, 3 and 15-18)
# [2] = system: mTOR; test: Western blot, mTOR / S6K in HEK 293T; format: cell-based
# From the text: FIGS. 7A-7B. (a) A18 activates AMPK and inhibits S6K in HEK 293T cells. […] (b) A18 and E11 activate AMPK and inhibit S6K in HEK 293T cells.
# (§3) Whether A18 and E11 treatment affect key cell growth signaling proteins was examined next. […] But it has no effects on the phosphorylation of ERK, AKT or JNK (FIG. 7). As previously reported, AMPK is likely to act as the key link between the ATP reduction and the subsequent cancer cell inhibition. (FIGS. 7 and 23-25). Based on the data reported here, the working model for A18 and E11 was proposed as outlined in FIG. 8. […] These led to upregulation of phosphorylation of AMPK and downregulation of phosphorylation of S6K. […] (FIG. 8)
# [3] = system: ERK, AKT or JNK; test: Western blot, phosphorylation of ERK, AKT or JNK; format: cell-based
# From the text: as §3
# [4] = system: IL2; test: IL2 reporter / IL-2 production in Jurkat T cells; format: cell-based
# From the text: (§4) FIGS. 28A-28D. (a) A18 and E11 inhibit NFAT and A18, but not E11, stimulates SRE reporter gene signal. (b) E11 inhibits NFAT, NF-κB and IL2, but not MEF-2 or AP-1 pathways, in Jurkat T cells. (c) Glucose inhibitor stimulates SRE reporter gene signal.
# (§5) Both A18 and E11 have shown immunosuppressive activity, blocking NFAT reporter gene activation and IL-2 production (see e.g., FIG. 28). As such, they can be used as immunosuppressive agents that have applications in treating organ transplantation rejection and all kinds of autoimmune diseases. […]
# [5] = system: NFAT; test: NFAT reporter gene assay; format: cell-based
# From the text: as §4, §5
# [6] = biological target: T1, GLUT1; test: pulldown with biotin-rapafucin conjugates from RBC-derived ghosts lysate, anti-GLUT1 Western blot; format: binding; conditions: for binding to GLUT1 in pulldown assay: RBC-derived ghosts cell lysate, Western blot; for competition of the binding of the other rapafucin's probe to GLUT1: pulldown, A18 probe versus E11 and vice versa
# From the text: FIGS. 6A-6B. Identification of direct interaction of A18 and E11 to Glut1. Glut1 protein levels of A18 (a) or E11 (b) pull down samples analyzed by western blotting.
# After showing that GLUT1 was very likely to be the target of A18 and E11, the direct interaction of A18 and E11 to GLUT1 was then examined. A series of biotin or diazrine-alkyne rapafucin conjugates through different positions were synthesized. […] Importantly, the binding of the biotin-rapafucin probe to GLUT1 is competed by rapafucin. […] (FIGS. 6, 21, 22 and 27)
# [7] = system: DLD-1 wild type; test: alamar blue cell viability assay, DLD-1 wild type; format: cell-based
# From the text: FIGS. 19A-19C. E11 is a specific inhibitor of Glut1. (a)(b) Inhibition of cell proliferation in A549, DLD-1 wild type and Glut1 knock out cells by A18 and E11. (c) Potency of A18 and E11 against the alamar blue assay in A549, DLD-1 wild type and Glut1 knock out cells.
# (§6) Up to now, at least 14 different isoforms of GLUTs have been identified in human cells. It was then asked whether A18 and E11 are specific inhibitors of GLUT1. To answer this question, colon cancer DLD-1 wild type and GLUT1 gene knock out cell lines were chosen as a cell model (FIG. 4a). […] GLUTs that are most relevant to cancer are Glut1 and Glut3. To obtain additional evidence, Glut1 and Glut3 in HEK 293T cells were overexpressed and an alamar blue cell viability assay was performed again. […] (see FIGS. 4, 19, 20, 26; Table 4).
# [8] = system: colon cancer RKO; test: alamar blue assay, RKO; format: cell-based, human
# From the text: (§7) Dose-dependent inhibition of cell proliferation by A18 and E11 was next evaluated in several other human cancer cell lines, including breast cancer HCC1954, pancreatic cancer PANC10.05, leukemia Jurkat T and colon cancer RKO (FIGS. 1b and 1c). […] (FIGS. 1 and 9; Table 3)
# [9] = system: DLD-1 GLUT1 gene knock out cells; test: 2-deoxy-D-[3H] glucose uptake in DLD-1 GLUT1 knock out cells; format: cell-based
# From the text: FIGS. 4A-4B. E11 is a specific inhibitor of Glut1. (a) Glut1 protein levels of DLD-1 wild type and knock out cells analyzed by western blotting. (b) Inhibition of 2-deoxy-D-[3H] glucose uptake in DLD-1 wild type and knock out cells by E11 or A18.
# as §6
# [10] = system: HEK293T; test: alamar blue assay, HEK293T; format: cell-based
# From the text: as §7, §6
# [11] = biological target: T1, GLUT1; test: 3-O-methyl-D-[3H] glucose uptake in human red blood cells; format: cell-based; conditions: RBCs; read-out: IC50 3H-labeled 3-O-methylglucose uptake
# From the text: as §1, §2
Molecule,IC50 [1],mTOR inhibition (S6K) [2],"phosphorylation of ERK, AKT or JNK [3]",IL-2 production [4],NFAT reporter gene signal [5],binding to GLUT1 in pulldown assay [6],competition of the binding of the other rapafucin's probe to GLUT1 [6],"inhibition of cell proliferation, alamar blue [7]",IC50 ([8]; Homo sapiens),inhibition of 2-deoxy-D-glucose uptake [9],"IC50 ([10]; Homo sapiens, HEK-293T, HEK293T, Table 3)","IC50 ([10]; Homo sapiens, HEK-293T, HEK 293T, Table 4)",IC50 [11],IC50 glucose uptake [1],IL2 pathway ([4]; Jurkat T cells),IC50 [8],"IC50 ([10]; HEK293T, Table 3)","IC50 ([10]; HEK 293T, Table 4)"
CC[C@@H](C)[C@H]1C(=O)NCC(=O)N(C)CC/C=C/C(=O)OCC(C)(C)C(=O)C(=O)N2CCCC[C@H]2C(=O)O[C@H](CCc2ccc(OC)c(OC)c2)c2cccc(c2)NC(=O)CCC(=O)N(C)[C@@H](CC(C)C)C(=O)N[C@H](Cc2ccccc2)C(=O)N1C [A18],49.5 nM,mTOR inhibition,no effects,blocking,inhibit; also recorded: blocking,can bind directly to GLUT1,vice versa,strongly inhibited,114 nM,strongly inhibited,110 nM,69 nM,34.2 nM,,,,,
Gly-^MSerBu-Nal-^MAla [E11],,mTOR inhibition,no effects,blocking,inhibit; also recorded: blocking,can bind directly to GLUT1,cannot be competed,kept inhibitory activity,,didn't show any inhibition,,,74.2 nM,totally lost its inhibitory activity,inhibits,714 nM,154 nM,84.8 nM
